Patent US20260165323A1, “USE OF STROBILURIN TYPE COMPOUNDS FOR COMBATING PHYTOPATHOGENIC FUNGI CONTAINING AN AMINO ACID SUBSTITUTION F129L IN THE MITOCHONDRIAL CYTOCHROME B PROTEIN CONFERRING RESISTANCE TO QO […]” (priority 2022, published 2026)

Assays:
[1] = test system: Alternaria solani (ALTESO); assay: Use example 5: microtest, growth of Alternaria solani (ALTESO); assay type: cell-based; details: 0.125 ppm; relative growth vs compound-free control (100%), 7 days after inoculation
Experimental: (§1) The active compounds were formulated separately as a stock solution having a concentration of 10000 ppm in dimethyl sulfoxide. The stock solutions were mixed according to the ratio, pipetted onto a micro titer plate (MTP) and diluted with water to the stated concentrations. A spore suspension of one of the following fungal plant pathogens in aqueous bio malt solution • was then added for the respective use example: • Use example 5: Alternaria solani (ALTESO) • Use example 6: Botrytis cinerea (BOTRCI) • Use example 7: Cercospora sojina (CERCSO) • Use example 8: Colletotrichum orbiculare (COLLLA) • Use example 9: Leptosphaeria nodorum (LEPTNO) • Use example 10: Drechslera teres (PYRNTE) containing the amino acid substitution F129L in the mitochondrial cytochrome b protein conferring resistance to Qo inhibitors • Use example 11: Sclerotinia sclerotiorum (SCLESC), solute with ultrasonic from a filter membrane
(§2) The plates were placed in a water vapor-saturated chamber at a temperature of 18° C. Using an absorption photometer, the MTPs were measured at 405 nm 7 days after the inoculation.
(§3) The measured parameters were compared to the growth of the active compound-free control variant (100%) and the fungus-free blank value to determine the relative growth in % of the pathogens in the respective active compounds.

[2] = test system: Sclerotinia sclerotiorum (SCLESC); assay: Use example 11: microtest, growth of Sclerotinia sclerotiorum (SCLESC); assay type: cell-based; details: relative growth vs compound-free control (100%), 7 days after inoculation; for Growth (%) SCLESC Use ex. 11: 8 ppm
Experimental: as §1, §2, §3

[3] = test system: Phakopsora pachyrhizi containing the amino acid substitution F129L in the mitochondrial cytochrome b protein; assay: Use Example 2: protective control of soybean rust on soybeans (PHAKPA P6); assay type: in vivo; details: inoculated six days after spraying, % diseased leaf area
Summary of the method: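 Disease was rated visually as % diseased leaf area up to 14 days after inoculation (23–27°C, 60–80% RH). Inoculum was P. pachyrhizi carrying cytochrome b F129L, followed by 24 h in a humid chamber (~95% RH). Inoculation came six days after protective spraying of seedlings with compound in acetone/DMSO–Wettol–water.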

Puccinia recondita [4] = assay: Use Example 3: curative control of brown rust on wheat (PUCCRT K4); assay type: in vivo; details: % diseased leaf area
Summary of the method: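 Wheat seedlings inoculated with Puccinia recondita spores, held 24 h at 95–99% RH, 20–24° C in dark, then 3 days in greenhouse before spraying to run-off (curative). Compound in acetone/DMSO–Wettol–water. After 5–7 further days at 20–24° C, 65–70% RH, % diseased leaf area scored visually.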

[5] = test system: Phakopsora pachyrhizi containing the amino acid substitution F129L in the mitochondrial cytochrome b protein; assay: Use Example 1: protective control of soybean rust on soybeans (PHAKPA P2); assay type: in vivo; details: inoculated 2 days after spraying, % diseased leaf area
Summary of the method: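 Protective test: plants were inoculated with the F129L cytochrome b rust strain 2 days after spraying to run-off, then held 24 h humid (~95% RH, 20-24° C) and up to 14 days at 23-27° C, 60-80% RH. Readout was visually assessed percent diseased leaf area.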

Puccinia recondita [6] = assay: Use Example 4: preventative control of brown rust on wheat (PUCCRT P7); assay type: in vivo; details: inoculated seven days after spraying, % diseased leaf area
Summary of the method: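 Preventative test: Puccinia recondita spores dusted onto wheat seedlings seven days after spraying their first two leaves to run-off with the formulated compound. After 24 h humid dark incubation at 20–24 °C and 9–11 days of greenhouse growth at 65–70% RH, infection rated visually as % diseased leaf area.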

[7] = test system: Leptosphaeria nodorum (LEPTNO); assay: Use example 9: microtest, growth of Leptosphaeria nodorum (LEPTNO); assay type: cell-based; details: relative growth vs compound-free control (100%), 7 days after inoculation
Experimental: as §1, §2, §3

[8] = test system: Botrytis cinerea (BOTRCI); assay: Use example 6: microtest, growth of Botrytis cinerea (BOTRCI); assay type: cell-based; details: 125 ppm; relative growth vs compound-free control (100%), 7 days after inoculation
Experimental: as §1, §2, §3

Row | Compound | Growth (%) ALTESO Use ex. 5 [1] | Growth (%) SCLESC Use ex. 11 [2] | % PHAKPA (F129L) Disease level P6 at 4 ppm [3] | % PHAKPA (F129L) Disease level P6 at 16 ppm [3] | % PUCCRT Disease level K4 at 4 ppm (Puccinia recondita [4]; 4 ppm) | % PUCCRT Disease level K4 at 16 ppm (Puccinia recondita [4]; 16 ppm) | % PHAKPA (F129L) Disease level P2 at 4 ppm [5] | % PHAKPA (F129L) Disease level P2 at 16 ppm [5] | % PUCCRT Disease level P7 at 4 ppm (Puccinia recondita [6]) | % PUCCRT Disease level P7 at 16 ppm (Puccinia recondita [6]) | Growth at 125 ppm (%) LEPTNO Use Ex. 9 [7] | Growth at 125 ppm (%) BOTRCI Use Ex. 6 [8] | Growth at 125 ppm (%) SCLESC Use Ex. 11 [2]
1 | COC/C(=N\OCc1c(C)cccc1/C(=N\OC)C(=O)OC)c1ccc(F)cc1 [reference compound] | 97% | 89% |  |  |  |  |  |  |  |  |  |  | 
2 | COC/C(=N\OCc1c(Cl)cccc1/C(=N\OC)C(=O)OC)c1ccc(F)cc1 [compound 1, Methyl (2E)-2-[3-chloro-2-[[(Z)-[1-(4-fluorophenyl)-2-methoxy-ethylidene]amino]oxymethyl]phenyl]-2-methoxyimino-acetate] | 73% | 72% | 57% | 11% | 87% | 77% | 20% | 1% | 53% | 23% |  |  | 
3 | COC/C(=N\OCc1c(Br)cccc1/C(=N\OC)C(=O)OC)c1ccccc1 [compound 57] |  |  | 48% | 21% |  |  | 41% | 3% | 60% | 13% | 1% | 0% | 2%
4 | CO/N=C(/C(=O)OC)c1cccc(Br)c1CO/N=C(\C)c1ccccc1 [reference compound] |  |  |  |  |  |  |  |  |  |  | 19% | 69% | 39%
